# Laboratory results reported in paper PMC12508156, “Non-canonical dihydrolipoyl transacetylase promotes chemotherapy resistance via mitochondrial tetrahydrofolate signaling” (Nature Communications, 2025).
# Experiments:
# NADPH = NADPH level (NADP/NADPH-Glo); assay type: cell-based, human
# Experimental: Cellular metabolic states were examined through various assays. To gauge the levels of total intracellular or mitochondrial reactive oxygen species (ROS), cells were stained with CM-H2DCFDA or mitoSOX, respectively. Intracellular H2O2, NADPH, acetyl-CoA, and GSH/GSSG ratios were quantified using commercial assay kits as listed in the Reagents. Intracellular ATP levels were determined utilizing the ATP bioluminescent somatic cell assay and normalized to the total protein concentrations. The de novo synthesized RNA and proteins were assessed in cancer cells using commercial assays following the manufacturer’s protocols. In brief, O-propargyl-puromycin or uridine analog, 5-EU, was applied to stop translation or modify RNA. Polypeptides or modified RNA were measured using fluorescent azide with Ex/Em at 494/521 nm. PDC activity was determined by measuring the reduction of NAD+ to NADH during the conversion of pyruvate into acetyl-CoA. […]
# A549cisR (a) and KB-3-1cisR (b) cells were transduced with control or […]
# µg/ml; KB-3-1cisR: 5 µg/ml) for 24 h. The GSH/GSSG ratio and relative NADPH levels were measured using GSH/GSSG-Glo Assay and NADP/NADPH-Glo Assay, respectively. Error bars represent SD and are from 4 independent biological replicates for the upper panels of (a,b) and 3 for the lower panels of (a,b). P values were determined by one-way ANOVA.
# (1 picture or pasted object on this page, not shown here)
# RNA synthesis = assay: Global RNA synthesis (5-EU labeling); assay type: cell-based, human; set-up: unit not given here
# Experimental: Cellular metabolic states were examined through various assays. To gauge the levels of total intracellular or mitochondrial reactive oxygen species (ROS), cells were stained with CM-H2DCFDA or mitoSOX, respectively. Intracellular H2O2, NADPH, acetyl-CoA, and GSH/GSSG ratios were quantified using commercial assay kits as listed in the Reagents. Intracellular ATP levels were determined utilizing the ATP bioluminescent somatic cell assay and normalized to the total protein concentrations. The de novo synthesized RNA and proteins were assessed in cancer cells using commercial assays following the manufacturer’s protocols. In brief, O-propargyl-puromycin or uridine analog, 5-EU, was applied to stop translation or modify RNA. Polypeptides or modified RNA were measured using fluorescent azide with Ex/Em at 494/521 nm. PDC activity was determined by measuring the reduction of NAD+ to NADH during the conversion of pyruvate into acetyl-CoA.
smiles,measurement,setting,value
N.N.[Cl][Pt][Cl] [cisplatin],NADPH,"NADPH; A549cisR cells, pLKO.1, n=1",0.7373
same,NADPH,"NADPH; A549cisR cells, pLKO.1, n=2",0.7802
same,NADPH,"NADPH; A549cisR cells, pLKO.1, n=3",0.7845
same,NADPH,"NADPH; A549cisR cells, shDLAT, n=1",0.3926
same,NADPH,"NADPH; A549cisR cells, shDLAT, n=2",0.3967
same,NADPH,"NADPH; A549cisR cells, shDLAT, n=3",0.3159
same,NADPH,"NADPH; A549cisR, CTL, sheet Figure 5G, replicate n=1",0.971
same,NADPH,"NADPH; A549cisR, CTL, sheet Figure 5G, replicate n=2",0.9727
same,NADPH,"NADPH; A549cisR, CTL, sheet Figure 5G, replicate n=3",1.056
same,NADPH,"NADPH; A549cisR, shDLAT+Flag-MTHFD2 (K44Q), sheet Figure 5G, replicate n=1",1.569
same,NADPH,"NADPH; A549cisR, shDLAT+Flag-MTHFD2 (K44Q), sheet Figure 5G, replicate n=2",1.336
same,NADPH,"NADPH; A549cisR, shDLAT+Flag-MTHFD2 (K44Q), sheet Figure 5G, replicate n=3",1.475
same,NADPH,"NADPH; A549cisR, shDLAT+Flag-MTHFD2 (K44R), sheet Figure 5G, replicate n=1",0.5654
same,NADPH,"NADPH; A549cisR, shDLAT+Flag-MTHFD2 (K44R), sheet Figure 5G, replicate n=2",0.5995
same,NADPH,"NADPH; A549cisR, shDLAT+Flag-MTHFD2 (K44R), sheet Figure 5G, replicate n=3",0.6728
same,NADPH,"NADPH; A549cisR, shDLAT, sheet Figure 5G, replicate n=1",0.5978
same,NADPH,"NADPH; A549cisR, shDLAT, sheet Figure 5G, replicate n=2",0.6166
same,NADPH,"NADPH; A549cisR, shDLAT, sheet Figure 5G, replicate n=3",0.6336
same,NADPH,"NADPH; KB-3-1cisR cells, pLKO.1, n=1",0.8565
same,NADPH,"NADPH; KB-3-1cisR cells, pLKO.1, n=2",0.8236
same,NADPH,"NADPH; KB-3-1cisR cells, pLKO.1, n=3",0.8268
same,NADPH,"NADPH; KB-3-1cisR cells, shDLAT, n=1",0.3931
same,NADPH,"NADPH; KB-3-1cisR cells, shDLAT, n=2",0.4089
same,NADPH,"NADPH; KB-3-1cisR cells, shDLAT, n=3",0.429
same,NADPH,"NADPH; KB-3-1cisR, CTL, sheet Figure 5G, replicate n=1",0.9984
same,NADPH,"NADPH; KB-3-1cisR, CTL, sheet Figure 5G, replicate n=2",0.9855
same,NADPH,"NADPH; KB-3-1cisR, CTL, sheet Figure 5G, replicate n=3",1.016
same,NADPH,"NADPH; KB-3-1cisR, shDLAT+Flag-MTHFD2 (K44Q), sheet Figure 5G, replicate n=1",1.788
same,NADPH,"NADPH; KB-3-1cisR, shDLAT+Flag-MTHFD2 (K44Q), sheet Figure 5G, replicate n=2",1.788
same,NADPH,"NADPH; KB-3-1cisR, shDLAT+Flag-MTHFD2 (K44Q), sheet Figure 5G, replicate n=3",1.859
same,NADPH,"NADPH; KB-3-1cisR, shDLAT+Flag-MTHFD2 (K44R), sheet Figure 5G, replicate n=1",0.4153
same,NADPH,"NADPH; KB-3-1cisR, shDLAT+Flag-MTHFD2 (K44R), sheet Figure 5G, replicate n=2",0.3927
same,NADPH,"NADPH; KB-3-1cisR, shDLAT+Flag-MTHFD2 (K44R), sheet Figure 5G, replicate n=3",0.4088
same,NADPH,"NADPH; KB-3-1cisR, shDLAT, sheet Figure 5G, replicate n=1",0.404
same,NADPH,"NADPH; KB-3-1cisR, shDLAT, sheet Figure 5G, replicate n=2",0.4217
same,NADPH,"NADPH; KB-3-1cisR, shDLAT, sheet Figure 5G, replicate n=3",0.4378
same,Global RNA synthase,"RNA synthesis; A549cisR, pLKO.1, n=1 (Figure 3B)",35.2
same,Global RNA synthase,"RNA synthesis; A549cisR, pLKO.1, n=2 (Figure 3B)",34.2
same,Global RNA synthase,"RNA synthesis; A549cisR, pLKO.1, n=3 (Figure 3B)",34.8
same,Global RNA synthase,"RNA synthesis; A549cisR, shDLAT, n=1 (Figure 3B)",36.6
same,Global RNA synthase,"RNA synthesis; A549cisR, shDLAT, n=2 (Figure 3B)",34
same,Global RNA synthase,"RNA synthesis; A549cisR, shDLAT, n=3 (Figure 3B)",33
same,Global RNA synthase,"RNA synthesis; KB-3-1cisR, pLKO.1, n=1 (Figure 3B)",34.8
same,Global RNA synthase,"RNA synthesis; KB-3-1cisR, pLKO.1, n=2 (Figure 3B)",33.4
same,Global RNA synthase,"RNA synthesis; KB-3-1cisR, pLKO.1, n=3 (Figure 3B)",32.4
same,Global RNA synthase,"RNA synthesis; KB-3-1cisR, shDLAT, n=1 (Figure 3B)",33.6
same,Global RNA synthase,"RNA synthesis; KB-3-1cisR, shDLAT, n=2 (Figure 3B)",31.4
same,Global RNA synthase,"RNA synthesis; KB-3-1cisR, shDLAT, n=3 (Figure 3B)",31.6
